Results on 24 compounds are retold here after patent publication US9765075B2, “Substituted bridged urea analogs as sirtuin modulators” (GLAXOSMITHKLINE LLC, priority 2013, dated 2017).

Each structure is given as a SMILES string. Where two headings read alike, the source gives them in different places.

For the experiment, the target named is T1, SIRT1 (Homo sapiens, UniProt Q96EB6).
T1 sequence (Q96EB6 1-747): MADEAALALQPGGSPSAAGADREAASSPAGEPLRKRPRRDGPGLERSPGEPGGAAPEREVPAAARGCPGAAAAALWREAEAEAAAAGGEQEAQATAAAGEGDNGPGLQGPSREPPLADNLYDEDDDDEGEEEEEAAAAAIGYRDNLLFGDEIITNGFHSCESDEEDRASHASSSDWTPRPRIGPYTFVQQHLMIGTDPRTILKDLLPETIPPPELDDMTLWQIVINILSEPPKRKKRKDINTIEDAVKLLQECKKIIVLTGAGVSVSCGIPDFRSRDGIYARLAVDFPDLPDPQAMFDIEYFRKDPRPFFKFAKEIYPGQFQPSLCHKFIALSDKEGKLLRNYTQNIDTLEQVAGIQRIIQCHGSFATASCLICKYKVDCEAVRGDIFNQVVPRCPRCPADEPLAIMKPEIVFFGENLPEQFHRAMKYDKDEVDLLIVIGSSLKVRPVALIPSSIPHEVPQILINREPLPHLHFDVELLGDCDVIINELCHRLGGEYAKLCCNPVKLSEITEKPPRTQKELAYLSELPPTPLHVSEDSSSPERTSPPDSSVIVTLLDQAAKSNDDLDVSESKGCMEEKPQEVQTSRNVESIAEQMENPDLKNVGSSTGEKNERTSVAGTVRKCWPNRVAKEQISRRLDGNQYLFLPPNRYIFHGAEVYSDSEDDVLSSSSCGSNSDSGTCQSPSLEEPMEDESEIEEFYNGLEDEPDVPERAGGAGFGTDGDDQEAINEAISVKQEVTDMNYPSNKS
In words: Trp mass spectrometry assay (SIRT1 activation). Particulars: for Emax: percent maximum fold activation of SIRT1, read-out: Tryp % Fold Act. The class given is biochemical. An excerpt:
Mass spectrometry based assays were used to identify modulators of SIRT1 activity. […] The peptide was labeled with the fluorophore 5TMR (excitation 540 nm/emission 580 nm) at the C-terminus. The sequence of the peptide substrate was based on p53 with several modifications. In addition, the methionine residue naturally present in the sequence was replaced with the norleucine because the methionine may be susceptible to oxidation during synthesis and purification. The Trp based assay utilized a peptide having an amino acid residues as follows: Ac-R-H-K-K(Ac)-W-NH2 (SEQ ID NO: 2).
The Trp mass spectrometry assay was conducted as follows. 0.5 μM peptide substrate and 120 μM βNAD^+ were incubated with 10 nM SIRT1 for 25 minutes at 25° C. in a reaction buffer (50 mM HEPES pH 7.5, […] NaCl, 1 mM DTT, 0.05% BSA). The SIRT1 protein was obtained by cloning the SirT1 gene into a T7-promoter containing vector, which was then expressed in BL21(DE3) bacterial cells and purified as described in further detail below. Test compound was added at varying concentrations to this reaction mixture and the resulting reactions were monitored. After the 25 minute incubation with SIRT1, 10 μL of 10% formic acid was added to stop the reaction. The resulting reactions were sealed and frozen for later mass spec analysis. The relative SIRT1 activity was then determined by measuring the amount of 0-acetyl-ADP-ribose (OAADPR) formed (or, alternatively, the amount of deacetylated Trp peptide generated) by the NAD-dependent sirtuin deacetylation reaction in the presence of varying concentrations of the test compound versus control reactions lacking the test compound. The degree to which the test agent activated deacetylation by SIRT1 was expressed as EC1.5 (i.e., the concentration of compound required to increase SIRT1 activity by 50% over the control lacking test compound), and Percent Maximum Activation (i.e., the maximum activity relative to control (100%) obtained for the test compound).
A control for activation of sirtuin activity was conducted using 10 nM of sirtuin protein, with 1 μL of DMSO in place of compound, to determine the amount of deacetylation of the substrate at a given time point within the linear range of the assay. This time point was the same as that used for test compounds and, within the linear range, the endpoint represents a change in velocity.
For the above assay, SIRT1 protein was expressed and purified as follows. The SirT1 gene was cloned into a T7-promoter containing vector and transformed into BL21(DE3). The protein was expressed by induction with 1 mM IPTG as an N-terminal His-tag fusion protein at 18° C. overnight and harvested at 30,000×g. Cells were lysed with lysozyme in lysis buffer (50 mM Tris-HCl, 2 mM Tris[2-carboxyethyl] phosphine (TCEP), 10 μM ZnCl2, 200 mM NaCl) and further treated with sonication for 10 min for complete lysis. The protein was purified over a Ni-NTA column (Amersham) and fractions containing pure protein were pooled, concentrated and run over a sizing column (Sephadex S200 26/60 global). The peak containing soluble protein was collected and run on an Ion-exchange column (MonoQ). Gradient elution (200 mM-500 mM NaCl) yielded pure protein. This protein was concentrated and dialyzed against dialysis buffer (20 mM Iris-HCl, 2 mM TCEP) overnight. The protein was aliquoted and frozen at −80° C. until further use.

[1] abbreviates: Trp mass spectrometry assay, EC1.5 = concentration of test compound that results in 150% activation of SIRT1.
Setting [2] is: concentration of test compound that results in 150% activation of SIRT1, Trp peptide substrate.

Take `O=C(Nc1cccc(-c2cnco2)c1)N1c2nc(-c3cccc(C(F)(F)F)c3)ccc2N2CC[C@H]1C2` [68 (1)]: the “Tryp AVG EC1.5 (μM)” value under setting [1] was “A (EC1.5<1 μM)”. Further, the Emax (Trp mass spectrometry assay) is not below 150%.

With `Cc1cnc2c(NC(=O)N3c4nc(-c5cccc(C(F)(F)F)c5)ccc4N4CC[C@H]3C4)cccc2n1` [76 (8)], the “Tryp AVG EC1.5 (μM)” value under setting [1] was “A (EC1.5<1 μM)”. The Emax (Trp mass spectrometry assay) is not below 150%.

For the compound `CCn1ncc2c(NC(=O)N3c4nc(-c5cccc(C(F)(F)F)c5)ccc4N4CC[C@H]3C4)cccc21` [81 (9)], the “Tryp AVG EC1.5 (μM)” value under setting [1] is “A (EC1.5<1 μM)”. For the same compound, the Emax (Trp mass spectrometry assay) is not below 150%.

Regarding `O=C(Nc1cccnc1)N1c2nc(-c3cccc(C(F)(F)F)c3)ccc2N2CCC[C@H]1C2` [314 (5)], under setting [2], the “Tryp AVG EC1.5 (μM)” value is “A (EC1.5<1 μM)”. The Emax (Trp peptide substrate) is not below 150%.

Take `NCc1ccc(NC(=O)N2c3nc(-c4cccc(C(F)(F)F)c4)ccc3N3CCC[C@H]2C3)cc1` [444 (4)]: the “Tryp AVG EC1.5 (μM)” value under setting [2] is on record as “A (EC1.5<1 μM)”. In addition, the Emax (Trp peptide substrate) is not below 150%.

Turning to `O=C(CCCCCNC(=O)c1ccc(-c2c3ccc(=O)cc-3oc3cc(O)ccc23)c(C(=O)O)c1)NCc1ccc(NC(=O)N2c3nc(-c4cccc(C(F)(F)F)c4)ccc3N3CCC[C@H]2C3)cc1` [546 (3)], the “Tryp AVG EC1.5 (μM)” value under setting [2] is “B (EC1.5 1-25 μM)”. Moreover, the Emax (Trp peptide substrate) is less than 150%.

Consider `O=C(Nc1ccccn1)N1c2nc(-c3cccc(C(F)(F)F)c3)ccc2N2CC[C@H]1C2` [816 (7)], for which, for the setting “Trp mass spectrometry assay, EC1.5 = concentration giving 150% activation of SIRT1”, the “Tryp AVG EC1.5 (μM)” value is “A (EC1.5<1 μM)”. In addition, under “Trp mass spectrometry assay”, the Emax is not below 150%.

For the compound `COc1cc(NC(=O)N2c3nc(-c4cncc(C)c4)ccc3N3CCC[C@H]2C3)ncn1` [EX-527, reference compound], the “Tryp AVG EC1.5 (μM)” value under setting [2] was “A (EC1.5<1 μM)”. Besides, under “Trp peptide substrate”, the Emax is not below 150%.

In the case of `O=C(Nc1cnccn1)N1c2nc(-c3cccc(C(F)(F)F)c3)ccc2N2CC[C@H]1C2` [Example 10], the Emax (Trp mass spectrometry assay) is not below 150%.

On to `O=C(Nc1cccnn1)N1c2nc(-c3cccc(C(F)(F)F)c3)ccc2N2CC[C@H]1C2` [Example 11], for which the Emax (Trp mass spectrometry assay) is not below 150%.

As to `O=C(Nc1ccncn1)N1c2nc(-c3cccc(C(F)(F)F)c3)ccc2N2CC[C@H]1C2` [Example 12], the Emax (Trp mass spectrometry assay) was not below 150%.

As to `Cc1cc(C)nc(NC(=O)N2c3nc(-c4cccc(C(F)(F)F)c4)ccc3N3CC[C@H]2C3)c1` [Example 13], where the note is “Trp mass spectrometry assay”, the Emax is not below 150%.

Regarding `Cc1cccnc1NC(=O)N1c2nc(-c3cccc(C(F)(F)F)c3)ccc2N2CC[C@H]1C2` [Example 14], under “Trp mass spectrometry assay”, the Emax is less than 150%.

In the case of `O=C(Nc1ccncc1F)N1c2nc(-c3cccc(C(F)(F)F)c3)ccc2N2CC[C@H]1C2` [Example 15], under “Trp mass spectrometry assay”, the Emax is not below 150%.

For `O=C(Nc1ccnc(O[C@H]2CCOC2)n1)N1c2nc(-c3cccc(C(F)(F)F)c3)ccc2N2CC[C@H]1C2` [Example 16], the Emax (Trp mass spectrometry assay) was not below 150%.

Consider `O=C(Nc1cccnc1)N1c2nc(-c3cccc(C(F)(F)F)c3)ccc2N2CC[C@H]1C2` [Example 17], for which the Emax (Trp mass spectrometry assay) was not below 150%.

With `O=C(Nc1cnc(OC[C@H](O)CO)cn1)N1c2nc(-c3cccc(C(F)(F)F)c3)ccc2N2CC[C@H]1C2` [Example 18], the Emax (Trp mass spectrometry assay) was not below 150%.

Turning to `O=C(Nc1ccccn1)N1c2nc(-c3cccc(Cl)c3)ccc2N2CC[C@H]1C2` [Example 19], the Emax (Trp mass spectrometry assay) was not below 150%.

For the compound `O=C(Nc1cncc(F)c1)N1c2nc(-c3cccc(C(F)(F)F)c3)ccc2N2CC[C@H]1C2` [Example 20], the Emax (Trp mass spectrometry assay) is not below 150%.

On to `Cc1cnccc1NC(=O)N1c2nc(-c3cccc(C(F)(F)F)c3)ccc2N2CC[C@H]1C2` [Example 21], for which the Emax (Trp mass spectrometry assay) is not below 150%.

As to `COc1cc(NC(=O)N2c3nc(-c4cccc(C(F)(F)F)c4)ccc3N3CC[C@H]2C3)nc(OC)n1` [Example 22], the Emax (Trp mass spectrometry assay) was not below 150%.

As to `O=C(Nc1cncnc1)N1c2nc(-c3cccc(C(F)(F)F)c3)ccc2N2CC[C@H]1C2` [Example 23], the Emax (Trp mass spectrometry assay) was not below 150%.

Consider `O=C(Nc1ccncc1F)N1c2nc(-c3cccc(Cl)c3)ccc2N2CC[C@H]1C2` [Example 24], for which the Emax (Trp mass spectrometry assay) is not below 150%.

Take `Cn1ccc(NC(=O)N2c3nc(-c4cccc(C(F)(F)F)c4)ccc3N3CC[C@H]2C3)n1` [Example 25]: the Emax (Trp mass spectrometry assay) was not below 150%.
